According to US9944603B2, “Compounds and methods for the treatment of cystic fibrosis” (Flatley Discovery Lab, LLC, priority 2013, dated 2018):

Biological target: T1, human F508del CFTR (Homo sapiens, UniProt P13569, DEL508-508)
T1 construct: expressed in transfected cells
Test: CFTR-YFP Assay, CFTR Corrector Protocol (YFP flux assay)
Assay type: cell-based
Details: for Emax: normalized to the positive control, read-out: EMAX (% Efficacy, EMAX normalized to the positive control)

T1 sequence (P13569 with tags, fused parts or gaps DEL508-508): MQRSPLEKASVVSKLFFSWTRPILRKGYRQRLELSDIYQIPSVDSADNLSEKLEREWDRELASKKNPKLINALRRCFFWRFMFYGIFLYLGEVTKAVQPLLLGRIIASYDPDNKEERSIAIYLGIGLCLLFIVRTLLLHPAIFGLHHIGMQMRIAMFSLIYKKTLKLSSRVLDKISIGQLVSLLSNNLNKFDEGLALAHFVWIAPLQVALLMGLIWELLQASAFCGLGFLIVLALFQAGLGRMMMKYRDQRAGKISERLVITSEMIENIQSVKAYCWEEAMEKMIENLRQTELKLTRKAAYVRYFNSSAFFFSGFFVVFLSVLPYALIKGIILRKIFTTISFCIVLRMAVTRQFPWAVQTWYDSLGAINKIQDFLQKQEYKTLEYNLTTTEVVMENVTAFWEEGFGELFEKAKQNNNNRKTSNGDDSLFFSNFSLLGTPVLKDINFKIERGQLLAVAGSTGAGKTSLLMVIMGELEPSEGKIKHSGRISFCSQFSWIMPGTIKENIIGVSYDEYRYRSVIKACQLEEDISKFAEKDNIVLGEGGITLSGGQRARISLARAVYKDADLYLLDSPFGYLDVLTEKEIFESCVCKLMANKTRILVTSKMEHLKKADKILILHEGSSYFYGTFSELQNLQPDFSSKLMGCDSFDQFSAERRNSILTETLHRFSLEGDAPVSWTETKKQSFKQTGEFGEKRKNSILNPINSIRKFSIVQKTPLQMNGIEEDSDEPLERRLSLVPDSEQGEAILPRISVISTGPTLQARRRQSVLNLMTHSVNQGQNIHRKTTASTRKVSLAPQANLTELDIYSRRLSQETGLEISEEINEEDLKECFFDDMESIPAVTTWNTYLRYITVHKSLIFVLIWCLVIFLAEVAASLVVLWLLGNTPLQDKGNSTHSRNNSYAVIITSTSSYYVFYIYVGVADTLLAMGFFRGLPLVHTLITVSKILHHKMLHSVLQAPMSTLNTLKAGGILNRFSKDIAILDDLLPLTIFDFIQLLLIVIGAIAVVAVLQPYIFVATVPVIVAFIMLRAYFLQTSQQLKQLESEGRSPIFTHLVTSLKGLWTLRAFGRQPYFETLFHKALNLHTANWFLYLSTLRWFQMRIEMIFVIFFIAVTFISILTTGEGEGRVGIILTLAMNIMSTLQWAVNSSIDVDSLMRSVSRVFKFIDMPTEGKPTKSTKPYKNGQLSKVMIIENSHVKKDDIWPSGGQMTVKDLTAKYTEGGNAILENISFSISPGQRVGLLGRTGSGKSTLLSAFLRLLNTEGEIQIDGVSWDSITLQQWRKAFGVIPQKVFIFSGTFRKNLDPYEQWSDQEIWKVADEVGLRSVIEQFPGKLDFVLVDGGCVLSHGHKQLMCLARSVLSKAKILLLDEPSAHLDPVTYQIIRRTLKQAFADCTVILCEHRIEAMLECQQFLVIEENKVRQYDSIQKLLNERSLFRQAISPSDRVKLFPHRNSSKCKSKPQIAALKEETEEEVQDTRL

Row | Compound | EC50 [µM] | Emax [%]
1 | O=S(=O)(c1ccc2c(c1)CCO2)N1CCC(n2c(-c3ccc(F)cc3F)nc3cccnc32)CC1 [Example 121] | < 10 | 30 to 80
2 | Cc1ccc2nc(-c3cccnc3Cl)n(C3CCN(S(=O)(=O)c4ccc5c(c4)OCO5)CC3)c2n1 [Example 101] | < 10 | 10 to 30
3 | CCc1ccc(S(=O)(=O)N2CCC(N(c3ccc(F)cc3)S(=O)(=O)c3ccccc3Cl)CC2)cc1 [Example 241] | < 10 | 10 to 30
4 | CCc1ccc(S(=O)(=O)N2CCC(N(C(=O)Nc3ccccc3Cl)c3cccc(C)n3)CC2)cc1 [Example 175, 3-(2-chlorophenyl)-1-(1-((4-ethylphenyl)sulfonyl)piperidin-4-yl)-1-(6-methylpyridin-2-yl)urea] | < 10 | 10 to 30
5 | CCc1ccc(S(=O)(=O)N2CCC(N(c3ccc(C)cc3)S(=O)(=O)c3ccccc3Cl)CC2)cc1 [Example 237] | < 10 | 10 to 30
6 | CCc1ccc(S(=O)(=O)N2CCC(N(c3ccccn3)S(=O)(=O)c3cccc(C)c3)CC2)cc1 [Example 226] | < 10 | 10 to 30
7 | Cc1nc2ccc(S(=O)(=O)N3CCC(n4c(-c5ccc(F)cc5F)nc5cccnc54)CC3)cc2o1 [Example 134] | < 10 | 30 to 80
8 | COc1ccc2nc(-c3ccncc3Cl)n(C3CCN(S(=O)(=O)c4ccc5c(c4)OC(F)(F)O5)CC3)c2n1 [Example 118] | < 10 | 30 to 80
9 | CCc1ccc(S(=O)(=O)N2CCC(N(c3ccc(Cl)cn3)S(=O)(=O)c3ccccc3Cl)CC2)cc1 [Example 230] | < 10 | 30 to 80
10 | Cc1noc2ccc(S(=O)(=O)N3CCC(n4c(-c5ccncc5F)nc5cccnc54)CC3)cc12 [Example 139] | > 20 | 10 to 30
11 | CCc1ccc(S(=O)(=O)N2CCC(N(c3cccc(C)n3)S(=O)(=O)c3ccccc3)CC2)cc1 [Example 186] | < 10 | 10 to 30
12 | COc1ccc2c(c1)nc(-c1ccccc1Cl)n2C1CCN(S(=O)(=O)c2ccc3c(c2)OC(F)(F)O3)CC1 [Example 153] | < 10 | 30 to 80
13 | CCc1ccc(S(=O)(=O)N2CCC(N(C(=S)c3ccccc3Cl)c3ccccc3)CC2)cc1 [Example 213] | 10 to 20 | 10 to 30
14 | CCc1ccc(S(=O)(=O)N2CCC(n3c(-c4ccccc4Cl)nc4cc(O)ccc43)CC2)cc1 [Example 167] | > 20 | 10 to 30
15 | COc1ccc(S(=O)(=O)N2CCC(N(c3cccc(C)n3)S(=O)(=O)c3c(C)cc(C)cc3C)CC2)cc1Cl [Example 193] | < 10 | 30 to 80
16 | COc1ccc(S(=O)(=O)N2CCC(n3c(-c4ccc5c(c4)OCO5)nc4cccnc43)CC2)cc1Cl [Example 57] | < 10 | 30 to 80
17 | Cc1nc2ccc(S(=O)(=O)N3CCC(n4c(-c5ccncc5F)nc5cccnc54)CC3)cc2o1 [Example 133] | < 10 | > 80
18 | CCc1ccc(S(=O)(=O)N2CCC(N(c3ccc(OC)cn3)S(=O)(=O)c3ccccc3Cl)CC2)cc1 [Example 218] | < 10 | 10 to 30
19 | O=S(=O)(c1ccc2c(c1)OC(F)(F)O2)N1CCC(n2c(-c3ccc(F)cc3F)nc3cccnc32)CC1 [Example 109] | < 10 | 30 to 80
20 | O=S(=O)(c1ccc2c(c1)OCO2)N1CCC(n2c(-c3ncccc3Cl)nc3cccnc32)CC1 [Example 93] | < 10 | 30 to 80

Row | Compound | EC50 [µM] | Emax [%]
21 | CCc1ccc(S(=O)(=O)N2CCC(N(c3ncccn3)S(=O)(=O)c3ccccc3Cl)CC2)cc1 [Example 242] | < 10 | 10 to 30
22 | O=S(=O)(c1cccc(OC(F)F)c1)N1CCC(n2c(-c3ccncc3Cl)nc3cccnc32)CC1 [Example 94] | < 10 | 10 to 30
23 | CCc1ccc(S(=O)(=O)N2CCC(N(c3ccccc3OC)S(=O)(=O)c3ccccc3Cl)CC2)cc1 [Example 239] | < 10 | 10 to 30
24 | CCc1ccc(S(=O)(=O)N2CCC(N(c3cnccn3)S(=O)(=O)c3ccccc3Cl)CC2)cc1 [Example 248] | < 10 | 30 to 80
25 | COc1ccc2c(c1)nc(-c1ccncc1Cl)n2C1CCN(S(=O)(=O)c2ccc3nc(C)oc3c2)CC1 [Example 160] | < 10 | 30 to 80
26 | COc1ccc(S(=O)(=O)N2CCC(n3c(-c4ccccc4OC)nc4cccnc43)CC2)cc1Cl [Example 55] | < 10 | 30 to 80
27 | COC(=O)c1ccccc1-c1nc2cccnc2n1C1CCN(S(=O)(=O)c2ccc(OC)c(Cl)c2)CC1 [Example 79] | < 10 | 30 to 80
28 | COc1ccc(S(=O)(=O)N2CCC(N(C(=O)Nc3ccccc3Cl)c3ccccn3)CC2)cc1Cl [Example 178] | < 10 | 10 to 30
29 | CCc1ccc(S(=O)(=O)N2CCC(N(C(=O)c3ccccc3Cl)c3cccc(Cl)c3)CC2)cc1 [Example 217] | < 10 | 10 to 30
30 | Cc1cccc(N(C(=O)c2ccccc2)C2CCN(S(=O)(=O)c3ccc4c(c3)OC(F)(F)O4)CC2)n1 [Example 205] | < 10 | 10 to 30
31 | O=C(c1ccccc1)N(c1ccccn1)C1CCN(S(=O)(=O)c2ccc3c(c2)OC(F)(F)O3)CC1 [Example 204] | < 10 | 10 to 30
32 | COc1ccc(S(=O)(=O)N2CCC(N(C(=O)c3ccccc3Cl)c3cccc(C)n3)CC2)cc1F [Example 200] | < 10 | 10 to 30
33 | COc1ccc2c(c1)nc(-c1ccncc1F)n2C1CCN(S(=O)(=O)c2ccc3nc(C)oc3c2)CC1 [Example 163] | < 10 | > 80
34 | COc1ccc2nc(-c3ccncc3Cl)n(C3CCN(S(=O)(=O)c4ccc(OC)c(Cl)c4)CC3)c2n1 [Example 58] | < 10 | 10 to 30
35 | CC(=O)Nc1ccc(S(=O)(=O)N2CCC(n3c(-c4ccccc4)nc4cccnc43)CC2)cc1Cl [Example 70] | < 10 | 10 to 30
36 | O=S(=O)(c1ccc2c(c1)OC(F)(F)O2)N1CCC(n2c(-c3ccccc3)nc3ccccc32)CC1 [Example 82] | < 10 | 30 to 80
37 | O=S(=O)(c1ccc2c(c1)CCC2)N1CCC(n2c(-c3ccncc3F)nc3cccnc32)CC1 [Example 51] | < 10 | 30 to 80
38 | Cc1cccc(N(C2CCN(S(=O)(=O)c3ccc4nc(C)oc4c3)CC2)S(=O)(=O)c2ccccc2Cl)n1 [Example 220, 2-Chloro-N-(1-((2-methylbenzo[d]oxazol-6-yl)sulfonyl)piperidin-4-yl)-N-(6-methylpyridin-2-yl)benzenesulfonamide] | < 10 | 30 to 80
39 | O=S(=O)(c1ccc2c(c1)OC(F)(F)O2)N1CCC(n2c(-c3ccncn3)nc3cccnc32)CC1 [Example 128] | < 10 | 10 to 30
40 | CCc1ccc(S(=O)(=O)N2CCC(n3c(-c4ccncc4F)nc4c(OC)ccnc43)CC2)cc1 [Example 169] | < 10 | 30 to 80

Row | Compound | EC50 [µM] | Emax [%]
41 | CC(=O)N1c2ccc(S(=O)(=O)N3CCC(n4c(-c5ccc(F)cc5F)nc5cccnc54)CC3)cc2CC1C (stereo not shown) [Example 146] | < 10 | 10 to 30
42 | Cc1ccnc2c1nc(-c1ccncc1F)n2C1CCN(S(=O)(=O)c2ccc3c(c2)OC(F)(F)O3)CC1 [Example 165] | < 10 | 30 to 80
43 | CCc1ccc(S(=O)(=O)N2CCC(n3c(-c4cccnc4F)nc4cccnc43)CC2)cc1 [Example 120] | < 10 | > 80
44 | Cc1cc(C)c(S(=O)(=O)N(c2ccccn2)C2CCN(S(=O)(=O)c3ccc4c(c3)OC(F)(F)O4)CC2)c(C)c1 [Example 185] | < 10 | 30 to 80
45 | CCc1ccc(S(=O)(=O)N2CCC(N(c3cccc(Cl)n3)S(=O)(=O)c3ccccc3Cl)CC2)cc1 [Example 232] | < 10 | 10 to 30
46 | CCc1ccc(S(=O)(=O)N2CCC(N(c3ccccn3)S(=O)(=O)c3ccccc3C)CC2)cc1 [Example 225] | < 10 | 10 to 30
47 | CCc1ccc(S(=O)(=O)N2CCC(N(c3ccccn3)S(=O)(=O)c3cccc(Cl)c3)CC2)cc1 [Example 234] | < 10 | 30 to 80
48 | COc1ccc(S(=O)(=O)N2CCC(n3c(-c4ccccc4Cl)nc4cccnc43)CC2)cc1F [Example 60] | < 10 | 30 to 80
49 | O=S(=O)(c1ccc2c(c1)OC(F)(F)O2)N1CCC(n2c(-c3ccccc3)cc3ccccc32)CC1 [Example 104] | < 10 | 30 to 80
50 | COc1ccc(S(=O)(=O)N2CCC(n3c(-c4ccccc4)cc4cccnc43)CC2)cc1Cl [Example 98] | < 10 | 10 to 30
51 | Cc1noc2ccc(S(=O)(=O)N3CCC(n4c(-c5ccc(F)cc5F)nc5cccnc54)CC3)cc12 [Example 140] | > 20 | 10 to 30
52 | Cc1ccc(S(=O)(=O)N2CCC(n3c(-c4ccccc4Cl)nc4ccc(C)nc43)CC2)cc1 [Example 65] | < 10 | 30 to 80
53 | O=S(=O)(c1ccc2cc[nH]c2c1)N1CCC(n2c(-c3ccncc3Cl)nc3cccnc32)CC1 [Example 161] | 10 to 20 | 10 to 30
54 | Cc1ccc(N(C2CCN(S(=O)(=O)c3ccc4nc(C)oc4c3)CC2)S(=O)(=O)c2ccccc2Cl)nc1 [Example 223] | 10 to 20 | 10 to 30
55 | COc1ccc(S(=O)(=O)N2CCC(n3c(-c4ccc(F)cc4F)nc4cccnc43)CC2)cc1Cl [Example 53] | < 10 | 30 to 80
56 | CCc1ccc(S(=O)(=O)N2CCC(n3c(-c4ccncc4F)nc4cccnc43)CC2)cc1 [Example 110] | < 10 | 30 to 80
57 | O=C(c1ccccc1Cl)N(c1ccccn1)C1CCN(S(=O)(=O)c2ccc3c(c2)OCO3)CC1 [Example 197] | < 10 | 10 to 30
58 | CC1Cc2cc(S(=O)(=O)N3CCC(n4c(-c5ccc(F)cc5F)nc5cccnc54)CC3)ccc2N1 (stereo not shown) [Example 149] | < 10 | 10 to 30
59 | [2H]C1([2H])Oc2ccc(S(=O)(=O)N3CCC(n4c(-c5cccnc5Cl)nc5cccnc54)CC3)cc2O1 [Example 135] | 10 to 20 | 10 to 30
